Results reported in PMC8666671, “Fine-tuning spermidine binding modes in the putrescine binding protein PotF” (The Journal of Biological Chemistry, 2021).
Numbering of substitutions follows the chain as printed. Several values for one entry are separate records, joined by “and”; a condition that tells them apart may be missing. Equal entries are not always repeated. Where two headings read alike, the source gives them in different places.

Legend:
PotF/D–E39D–F88L–S247D = biological target: T1, PotF/D–E39D–F88L–S247D (Escherichia coli, UniProt P31133, A182D/F276W/F88L/L348Q/S38T/S87Y); test: ITC, PotF/D–E39D–F88L–S247D; type: binding; settings: 293 K; for n: ITC binding stoichiometry; for ΔG / ΔH / −TΔS / Kd: ITC; for Kd: 50 mM Tris pH 8, 300 mM NaCl, biological triplicates
T1 construct: without the N-terminal signal peptide; made in house; host or cells: E. coli BL21 (DE3)
T1 sequence (P31133 27-370 S38T/S87Y/F88L/A182D/F276W/L348Q): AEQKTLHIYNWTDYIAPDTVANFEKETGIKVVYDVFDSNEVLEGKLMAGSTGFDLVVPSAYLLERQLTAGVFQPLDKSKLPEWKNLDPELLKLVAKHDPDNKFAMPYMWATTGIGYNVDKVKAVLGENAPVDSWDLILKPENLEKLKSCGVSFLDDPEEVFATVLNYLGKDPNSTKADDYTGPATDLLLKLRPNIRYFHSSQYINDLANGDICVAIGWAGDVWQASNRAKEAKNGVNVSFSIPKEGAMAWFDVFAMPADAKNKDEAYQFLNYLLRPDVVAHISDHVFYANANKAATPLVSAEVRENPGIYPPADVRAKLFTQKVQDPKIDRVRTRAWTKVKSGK
Procedure: (§1) Ligands were always freshly prepared in the exact same buffer as was used for the size exclusion run. Samples were degassed, and temperature was equilibrated using a degassing station (TA Instruments). About 400 μl protein sample of different concentrations (Table S5) depending on affinity was transferred into the sample cell of a nanoITC (TA Instruments), and 50 μl of about tenfold concentrated ligand solution was loaded into the injection needle. Multiple injection measurements were carried out at 293 K, 300 rpm stirring rate, and 250 s spacings between each 2 μl injection. The heat quantity past injection was determined by integration of the measured peaks. Every protein–ligand combination was measured as biological triplicate. Subtraction of heat of dilution measurements, peak integration, and one site binding fits were done with NanoAnalyze (TA Instruments). Reported errors are the errors between fits of the measured triplicates.

PotF_Abox-S87Y = biological target: T2, PotF_Abox-S87Y (Escherichia coli, UniProt P31133, F276W/S87Y); test: ITC, PotF_Abox-S87Y (F276W, S87Y); type: binding; settings: 293 K; for n: ITC binding stoichiometry; for ΔG / ΔH / −TΔS / Kd: ITC; for Kd: 50 mM Tris pH 8, 300 mM NaCl, biological triplicates
T2 construct: without the N-terminal signal peptide; made in house; host or cells: E. coli BL21 (DE3)
T2 sequence (P31133 27-370 S87Y/F276W): T1 sequence (P31133 27-370 S38T/S87Y/F88L/A182D/F276W/L348Q) with T12S, L62F, D156A, Q322L
Procedure: as §1

PotF_Dist = biological target: T3, PotF_Dist (Escherichia coli, UniProt P31133, A182D/L348Q/S87Y); test: ITC, PotF_Dist (S87Y, A182D, L348Q); type: binding; settings: 293 K
T3 construct: without the N-terminal signal peptide; made in house; host or cells: E. coli BL21 (DE3)
T3 sequence (P31133 27-370 S87Y/A182D/L348Q): T1 sequence (P31133 27-370 S38T/S87Y/F88L/A182D/F276W/L348Q) with T12S, L62F, W250F
Procedure: as §1

PotF_Abox_Dist = biological target: T4, PotF_Abox_Dist (Escherichia coli, UniProt P31133, A182D/F276W/L348Q/S87Y); test: ITC, PotF_Abox_Dist (S87Y, A182D, L348Q, F276W); type: binding; settings: 293 K
T4 construct: without the N-terminal signal peptide; made in house; host or cells: E. coli BL21 (DE3)
T4 sequence (P31133 27-370 S87Y/A182D/F276W/L348Q): T1 sequence (P31133 27-370 S38T/S87Y/F88L/A182D/F276W/L348Q) with T12S, L62F
Procedure: as §1

PotF = biological target: PotF; parameters: method as in PMID 33406388; settings: PotF wildtype, cited from earlier work
PotF/D–E39D–F88A–S247D = biological target: T5, PotF/D–E39D–F88A–S247D (Escherichia coli, UniProt P31133, A182D/F276W/F88A/L348Q/S38T/S87Y); test: ITC, PotF/D–E39D–F88A–S247D; type: binding; settings: 293 K; for n: ITC binding stoichiometry; for ΔG / ΔH / −TΔS / Kd: ITC; for Kd: 50 mM Tris pH 8, 300 mM NaCl, biological triplicates
T5 construct: without the N-terminal signal peptide; made in house; host or cells: E. coli BL21 (DE3)
T5 sequence (P31133 27-370 S38T/S87Y/F88A/A182D/F276W/L348Q): T1 sequence (P31133 27-370 S38T/S87Y/F88L/A182D/F276W/L348Q) with L62A
Procedure: as §1

[1] = ITC, 50 mM Tris pH 8, 300 mM NaCl, biological triplicates

SMILES: NCCCCN [PUT, putrescine]
- n (PotF/D–E39D–F88L–S247D): 0.90 ± 0.01
- ΔG (PotF/D–E39D–F88L–S247D): -4.97 ± 0.13 kcal/mol
- ΔH (PotF/D–E39D–F88L–S247D): -5.54 ± 0.73 kcal/mol
- −TΔS (PotF/D–E39D–F88L–S247D): 0.57 ± 0.86 kcal/mol
- Kd (PotF/D–E39D–F88L–S247D): 203 ± 43.1 µM
- n (PotF_Abox-S87Y): 0.92 ± 0.03
- ΔG (PotF_Abox-S87Y): -6.47 ± 0.02 kcal/mol
- ΔH (PotF_Abox-S87Y): -9.97 ± 0.20 kcal/mol
- −TΔS (PotF_Abox-S87Y): 3.50 ± 0.18 kcal/mol
- Kd (PotF_Abox-S87Y): 14.9 ± 0.54 µM
- KD (PotF_Dist; [1]): abolishes association
- KD (PotF_Abox_Dist; [1]): not detectable
- Kd (PotF; ITC): 0.07 ± 0.04 µM
- ΔG (PotF; ITC): -9.74 ± 0.40 kcal/mol
- ΔH (PotF; ITC): -23.02 ± 0.12 kcal/mol
- −TΔS (PotF; ITC): 13.28 ± 0.52 kcal/mol
- Kd (PotF): ~0.068 µM
- n (PotF/D–E39D–F88A–S247D): 0.92 ± 0.04
- ΔG (PotF/D–E39D–F88A–S247D): -5.23 ± 0.02 kcal/mol
- ΔH (PotF/D–E39D–F88A–S247D): -5.21 ± 0.14 kcal/mol
- −TΔS (PotF/D–E39D–F88A–S247D): -0.02 ± 0.15 kcal/mol
- Kd (PotF/D–E39D–F88A–S247D): 126 ± 5.29 µM

SMILES: NCCCCNCCCN [SPD, spermidine]
- n (PotF/D–E39D–F88L–S247D): 0.93 ± 0.01
- ΔG (PotF/D–E39D–F88L–S247D): -7.35 ± 0.09 kcal/mol
- ΔH (PotF/D–E39D–F88L–S247D): -4.19 ± 0.06 kcal/mol
- −TΔS (PotF/D–E39D–F88L–S247D): -3.17 ± 0.10 kcal/mol
- Kd (PotF/D–E39D–F88L–S247D): 3.33 ± 0.53 µM
- n (PotF_Abox-S87Y): 0.97 ± 0.02
- ΔG (PotF_Abox-S87Y): -6.30 ± 0.02 kcal/mol
- ΔH (PotF_Abox-S87Y): -5.66 ± 0.12 kcal/mol
- −TΔS (PotF_Abox-S87Y): -0.65 ± 0.12 kcal/mol
- Kd (PotF_Abox-S87Y): 20 ± 0.7 µM
- n (PotF_Dist; ITC binding stoichiometry): 0.91 ± 0.02
- ΔG (PotF_Dist; ITC): -5.48 ± 0.20 kcal/mol
- ΔH (PotF_Dist; ITC): -1.83 ± 0.08 kcal/mol
- −TΔS (PotF_Dist; ITC): -3.65 ± 0.28 kcal/mol
- KD (PotF_Dist; [1]): very low
- Kd (PotF_Dist; [1]): 88.2 ± 33.1 µM
- n (PotF_Abox_Dist; ITC binding stoichiometry): 0.94 ± 0.00
- ΔG (PotF_Abox_Dist; ITC): -6.85 ± 0.02 kcal/mol
- ΔH (PotF_Abox_Dist; ITC): -5.28 ± 0.07 kcal/mol
- −TΔS (PotF_Abox_Dist; ITC): -1.57 ± 0.09 kcal/mol
- Kd (PotF_Abox_Dist; [1]): ~7.8 µM and 7.8 µM and 7.77 µM
- Kd (PotF; ITC): 29.7 ± 1.15 µM
- ΔG (PotF; ITC): -6.07 ± 0.02 kcal/mol
- ΔH (PotF; ITC): -3.65 ± 0.06 kcal/mol
- −TΔS (PotF; ITC): -2.42 ± 0.04 kcal/mol
- n (PotF/D–E39D–F88A–S247D): 0.91 ± 0.01
- ΔG (PotF/D–E39D–F88A–S247D): -7.82 ± 0.06 kcal/mol
- ΔH (PotF/D–E39D–F88A–S247D): -4.75 ± 0.09 kcal/mol
- −TΔS (PotF/D–E39D–F88A–S247D): -3.07 ± 0.14 kcal/mol
- Kd (PotF/D–E39D–F88A–S247D): 1.48 ± 0.14 µM
